This note sets out measurements from ChEMBL document CHEMBL1156463, “Survivin down-regulation plays a crucial role in 3-hydroxy-3-methylglutaryl coenzyme A reductase inhibitor-induced apoptosis in cancer” (J Biol Chem, 2007).

Experiment [1] has as its system SW480. Nature of the experiment: Decrease in survivin expression in human SW480 cells at 20 uM after 24 hrs by immunoblot analysis. It counts as functional, cell-based. For orientation: Immunoblotting shows a protein as a band on a membrane.
Experiment [2] has as its system SW480. In words: Decrease in isoprenylated Ras level in human SW480 cells at 20 uM after 48 hrs by immunoblot analysis. It counts as functional, cell-based.
For experiment [3], the system named is SW480. In words: Inhibition of FBS-stimulated increase in Ras protein expression in human SW480 cells assessed as GTP-bound protein at 20 uM by immunoblot analysis. The format is functional, cell-based.
Experiment [4] deals with LS180. Nature of the experiment: Inhibition of survivin expression in survivin gene transfected human LS180 cells at 20 uM immunoblot analysis. The format is functional, cell-based.
Another experiment concerns HT-29. In words: Growth inhibition of human HT29 cells after 96 hrs by MTS assay. It counts as functional, cell-based. The following applies: HT-29, 96 h. (Formazan colour is commonly taken as a measure of viable cells.)
For experiment [5], the system named is SW480. In words: Induction of cell cycle arrest in human SW480 cells by accumulation at G2/M phase at 20 uM after 48 hrs by flow cytometry. It counts as functional, cell-based.
In experiment [6] the test system is LS180. In words: Blockade of growth inhibition of human LS180 cells after 72 hrs by MTS method. It counts as functional, cell-based.
Experiment [7] deals with SW480. In words: Induction of apoptosis in human SW480 cells assessed as increase in hypodiploid DNA content at 20 uM after 48 hrs by flow cytometry relative to control. The format is functional. For orientation: A flow cytometer gives signals particle by particle.
Experiment [8] deals with SW480. In words: Decrease in survivin expression in human SW480 cells at 20 uM after 48 hrs by immunoblot analysis. It counts as functional, cell-based.
Experiment [9] is described as follows: Growth inhibition of human LS180 cells after 96 hrs by MTS assay. It counts as functional, cell-based. To be noted: LS180, 96 h.
In experiment [10] the test system is SW480. Nature of the experiment: Reversal of decrease in isoprenylated Ras level in human SW480 cells at 20 uM after 48 hrs by immunoblot analysis in presence of geranylgeranyl pyrophosphate. The format is functional, cell-based.
In experiment [11] the test system is SW480. Nature of the experiment: Induction of cell cycle arrest in human SW480 cells by accumulation at G0/G1 phase at 20 uM after 48 hrs by flow cytometry. The format is functional, cell-based.
The target of experiment [12] is RAC-alpha serine/threonine-protein kinase (Homo sapiens) (UniProt P31749). Nature of the experiment: Inhibition of FBS-stimulated increase in Akt phosphorylation in human SW480 cells at 20 uM by immunoblot analysis. The format is cell-based.
Chain of RAC-alpha serine/threonine-protein kinase (Homo sapiens) (P31749 whole entry): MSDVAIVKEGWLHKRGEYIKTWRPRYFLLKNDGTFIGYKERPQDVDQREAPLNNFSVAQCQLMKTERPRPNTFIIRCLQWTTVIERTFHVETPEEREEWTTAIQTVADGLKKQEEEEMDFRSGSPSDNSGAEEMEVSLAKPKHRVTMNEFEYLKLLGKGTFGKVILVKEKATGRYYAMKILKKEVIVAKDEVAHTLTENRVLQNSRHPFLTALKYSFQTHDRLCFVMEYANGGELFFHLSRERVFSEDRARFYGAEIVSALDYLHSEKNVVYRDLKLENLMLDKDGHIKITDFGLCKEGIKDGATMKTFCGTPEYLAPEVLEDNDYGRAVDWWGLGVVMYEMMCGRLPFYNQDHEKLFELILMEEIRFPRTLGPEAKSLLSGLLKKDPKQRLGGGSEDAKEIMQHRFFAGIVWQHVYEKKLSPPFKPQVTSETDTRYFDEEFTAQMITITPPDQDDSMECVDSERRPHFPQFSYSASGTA
The test system of experiment [13] is SW480. Nature of the experiment: Reversal of growth inhibition of human SW480 cells at 20 uM after 48 hrs by […] in presence of geranylgeranyl pyrophosphate. It counts as functional, cell-based.
Experiment [14] has as its system SW480. In words: Decrease in survivin mRNA expression in human SW480 cells at 20 uM after 48 hrs by RT-PCR technique. It counts as functional.
For experiment [15], the system named is SW480. In words: Induction of apoptosis in human SW480 cells at 20 uM after 48 hrs by annexin-V propidium iodide staining method. It counts as functional.
Experiment [16] deals with SW480. Nature of the experiment: Reversal of growth inhibition of human SW480 cells at 20 uM after 48 hrs by MTS assay in presence of >50 uM mevalonate. The format is functional, cell-based.
The test system of experiment [17] is SW480. Nature of the experiment: Reversal of decrease in isoprenylated Ras level in human SW480 cells at 20 uM after 48 hrs by immunoblot analysis in presence of squalene. The format is functional, cell-based.
For experiment [18], the system named is SW480. Nature of the experiment: Reversal of inhibition of FBS-stimulated increase in Ras protein expression in human SW480 cells assessed as GTP-bound protein at 20 uM by immunoblot analysis. The format is functional, cell-based.
For experiment [19], the system named is SW480. Nature of the experiment: Effect on Bax expression in human SW480 cells. It counts as functional, cell-based.
Experiment [20] deals with SW480. In words: Induction of cell cycle arrest in human SW480 cells by accumulation at S phase at 20 uM after 48 hrs by flow cytometry. The format is functional, cell-based.
Experiment [21] concerns SW480. In words: Reversal of growth inhibition of human SW480 cells at 20 uM after 48 hrs by […] in presence of squalene. It counts as functional, cell-based.
Experiment [22] relates to SW480. In words: Reversal of decrease in isoprenylated Ras level in human SW480 cells at 20 uM after 48 hrs by immunoblot analysis in presence of mevalonate. The format is functional, cell-based.
The subject of experiment [23] is SW480. In words: Growth inhibition of human SW480 cells after 96 hrs by MTS assay. The following applies: SW480, 96 h. It counts as functional, cell-based.
For experiment [24], the system named is SW480. Nature of the experiment: Reversal of reduction in survivin expression in human SW480 cells at 20 uM after 48 hrs by immunoblot analysis in presence of 100 uM mevalonate. It counts as functional, cell-based.
In experiment [25] the test system is SW480. Nature of the experiment: Reversal of growth inhibition of human SW480 cells at 20 uM after 48 hrs by […] in presence of farnesyl pyrophosphate. It counts as functional, cell-based.
The test system of experiment [26] is SW480. Nature of the experiment: Reversal of decrease in isoprenylated Ras level in human SW480 cells at 20 uM after 48 hrs by immunoblot analysis in presence of farnesyl pyrophosphate. The format is functional, cell-based.
Experiment [27] concerns LS180. Nature of the experiment: Inhibition of survivin expression in parent human LS180 cells at 20 uM by immunoblot analysis. The format is functional, cell-based.
The test system of experiment [28] is SW480. Nature of the experiment: Reversal of reduction in survivin mRNA expression in human SW480 cells at 20 uM after 48 hrs by RT-PCR technique in presence of 100 uM mevalonate. The format is functional, cell-based.
Experiment [29] relates to LS180. In words: Blockade of growth inhibition of survivin gene transfected human LS180 cells after 72 hrs by MTS method. The format is functional, cell-based.

Each structure is given as a SMILES string. pIC50: −log10 of the molar value. Calls of active or inactive are those of the source. The calls are words filed in the database; no cut-off is given here.

As to `O=c1cc(N2CCOCC2)oc2c(-c3ccccc3)cccc12`, in the experiment on SW480 [1], the outcome was Active.
`CC[C@H](C)C(=O)O[C@H]1C[C@@H](C)C=C2C=C[C@H](C)[C@H](CC[C@@H]3C[C@@H](O)CC(=O)O3)[C@H]21` [LOVASTATIN]: the result in the experiment with SW480 [2], in the experiment on SW480 [3], in the experiment with LS180 [4], in the experiment on LS180 [6], with SW480 [8] and with SW480 [10] was Active. Also, the outcome (in experiment [12]; in the experiment on SW480 [13]; in the experiment with SW480 [16]; in the experiment with SW480 [18]; in the experiment on SW480 [22]; in the experiment on SW480 [24]) was Active. For the same molecule, the result with SW480 [25], with SW480 [26], with LS180 [27] and in the experiment on SW480 [28] was Active. Further, the pIC50 (in general, the negative decadic logarithm of the IC50, by convention in mol/L) in the experiment with HT-29 was 4.33; in experiment [9], 4.60; with SW480 [23] it was 5.15. Further, the result with SW480 [5], in the experiment with SW480 [11], with SW480 [17], with SW480 [19], in the experiment with SW480 [20] and with SW480 [21] was inactive. Moreover, the Activity in the experiment with SW480 [7] is 20.7%; with SW480 [14], 60%; with SW480 [15], 24.2%; in the experiment with LS180 [29], “Dose-dependent effect”.
